Results published in patent US11497726B2, “Topical therapy for the treatment of cervical intraepithelial neoplasia (CIN) and cervical cancer using nanoparticles of taxanes” (DFB SORIA, LLC, priority 2018, dated 2022).
Like-named read-outs stand apart in the source and are kept apart here.

Assays:
[1] = methanol/water 15/85 (v/v), 37° C., pH 7, 75 rpm, cited from earlier work
[2] = Solubility of paclitaxel in various solvents (HPLC); assay type: physicochemical
Method: Step “d” was continued for each vial for a total of 48 hours.

rabbit skin = conditions: Draize rabbit skin test model; cited from earlier work
high-grade CIN = conditions: cited from earlier work
[3] = Crystal growth of paclitaxel nanoparticles, visual observation by light microscopy; assay type: physicochemical
[4] = Particle size of paclitaxel nanoparticle lots (ACCUSIZER 780); assay type: physicochemical
Description: Instrument parameters: Max. Concentration: 9000 particles/mL, No. containers: 1, Sensor Range: Summation, Lower Detection Limit: 0.5 μm, Flow Rate: 30 mL/min, No. Analysis pulls: 4, Time between pulls: 1 sec, Pull volume: 10 mL, Tare Volume: 1 mL, Prime volume: 1 mL, Include First Pull: Not Selected.
Vortexed for 5-10 minutes and sonicated in a water batch for 1 minute.
Method: Filled a plastic bottle with filtered (0.22 μm) 0.1% w/w SDS solution and analyzed the Background.

[5] = Specific surface area (SSA), BET isotherm; assay type: physicochemical
Description: (§1) As used herein, the “specific surface area (SSA)” is the total surface area of the taxane nanoparticle per unit of taxane mass as measured by the Brunauer-Emmett-Teller (“BET”) isotherm by the following method: a known mass between 200 and 300 mg of the analyte is added to a 30 mL sample tube. […] The automated test is then carried out using the BETWIN® software package and the surface area of each sample is subsequently calculated. The bulk density measurement can be conducted by pouring the taxane nanoparticles into a graduated cylinder without tapping at room temperature, measuring the mass and volume, and calculating the bulk density.

[6] = Bulk density (not tapped); assay type: physicochemical
Description: as §1

Gottingen minipigs = assay: Dermal toxicity study, 28 days, GLP; assay type: in vivo; conditions: topical, daily for 28 days
Description: The GLP-compliant study was conducted in Gottingen minipigs to characterize the toxicity of the formulations applied topically to 10% body surface area daily for 28 days. […] Reversibility of findings was also evaluated following a 2-week recovery period. Parameters evaluated included clinical observations, mortality and moribundity checks, dermal scoring, body weight, food consumption, eye examinations, test site photographs, electrocardiology, clinical pathology, bioanalysis and toxicokinetic evaluation, organ weights, macroscopic pathology and histopathology. There were no formulation-related effects on survival, clinical signs, dermal irritation, body weights, body weight gains, food consumption, ophthalmic findings, or cardiology parameters.

[7] = summary statement on the cited study; cited from earlier work
[8] = lot used in formulas listed in Table 3
[9] = lot used in formulas listed in Tables 16-19

## CC(=O)O[C@@]12CO[C@@H]1C[C@H](O)[C@@]1(C)C(=O)[C@H](O)C3=C(C)[C@@H](OC(=O)[C@H](O)[C@@H](NC(=O)OC(C)(C)C)c4ccccc4)C[C@@](O)([C@@H](OC(=O)c4ccccc4)[C@H]21)C3(C)C [docetaxel nanoparticles, docetaxel]
[1]; nanoparticles made by milling
  dissolution rate, % dissolved in 30 minutes: 9%
[1]; nanoparticles made by the supercritical carbon dioxide method
  dissolution rate, % dissolved in 30 minutes: 27%

## CC(=O)O[C@H]1C(=O)[C@@]2(C)[C@H]([C@H](OC(=O)c3ccccc3)[C@]3(O)C[C@H](OC(=O)[C@H](O)[C@@H](NC(=O)c4ccccc4)c4ccccc4)C(C)=C1C3(C)C)[C@]1(OC(C)=O)CO[C@@H]1C[C@@H]2O [Paclitaxel, paclitaxel]
[2]; in Benzyl Alcohol, NF
  Paclitaxel Solubility at RT: 17.02% w/w
[2]; in Diethylene Glycol Monoethyl Ether, NF (TRANSCUTOL P)
  Paclitaxel Solubility at RT: 33.10% w/w
[2]; in Diisopropyl Adipate (CERAPHYL 230)
  Paclitaxel Solubility at RT: 3.51% w/w
[2]; in Dimethyl Isosorbide
  Paclitaxel Solubility at RT: 38.22% w/w
[2]; in Hexylene Glycol
  Paclitaxel Solubility at RT: 4.07% w/w
[2]; in Isopropyl Myristate, NF
  Paclitaxel Solubility at RT: 0.048% w/w
[2]; in Medium Chain Triglycerides, NF
  Paclitaxel Solubility at RT: 0.32% w/w
[2]; in Mineral Oil, USP (heavy)
  Paclitaxel Solubility at RT: 0.3 ppm
[2]; in Polyethylene Glycol 400, NF
  Paclitaxel Solubility at RT: 22.30% w/w
[2]; in Propylene Carbonate
  Paclitaxel Solubility at RT: 4.74% w/w
[2]; in Propylene Glycol, USP
  Paclitaxel Solubility at RT: 0.88% w/w
[2]; in Super Refined Oleic Acid, NF
  Paclitaxel Solubility at RT: 0.041% w/w
[2]; in Super Refined Oleyl Alcohol, NF
  Paclitaxel Solubility at RT: 0.38% w/w
[2]; in water, method of Example 1
  solubility of paclitaxel in water: less than 0.05 ppm

## CCCCCCCCCCCCN1CCCCCC1=O [laurocapram, 1-Dodecyl azacycloheptan-2-one]
Rabbit skin
  local skin irritation: edema and erythema have been observed

## CC(C)Cn1cnc2c(N)nc3ccccc3c21 [Imiquimod]
high-grade CIN; despite frequent adverse effects such as vaginal discharge, vulvar pain, fever, headache, and fatigue
  tolerability: generally well-tolerated
high-grade CIN; topically applied to the ectocervix
  efficacy in the treatment of high-grade CIN: some efficacy

## CC(=O)O[C@H]1C(=O)[C@@]2(C)[C@H]([C@H](OC(=O)c3ccccc3)[C@]3(O)C[C@H](OC(=O)[C@H](O)[C@@H](NC(=O)c4ccccc4)c4ccccc4)C(C)=C1C3(C)C)[C@]1(OC(C)=O)CO[C@@H]1C[C@@H]2O [Paclitaxel nanoparticles, paclitaxel]
[3]; in Aluminum sulfate 0.1-0.2% in water, 7 days, RT
  Needle shaped crystals observed? (visual observation by light microscopy): Yes, >5 μm, @
[3]; in Ammonium lauryl sulfate 2% in water, 3 days, RT
  Needle shaped crystals observed? (visual observation by light microscopy): Yes, >5 μm @
[3]; in Benzalkonium chloride (50%) 2% in water, 7 days & 21 days, RT
  Needle shaped crystals observed? (visual observation by light microscopy): No, <5 μm @
[3]; in CARBOPOL ULTREZ 10 (with Ammonium hydroxide as neutralizer) 0.5% in water, 8 days & 21 days, RT
  Needle shaped crystals observed? (visual observation by light microscopy): No, <5 μm, @
[3]; in Castor Oil 100%, 24 hrs & 9 days, RT
  Needle shaped crystals observed? (visual observation by light microscopy): No, <5 μm @
[3]; in Dimethicone, 1000 cSt 100%, 24 hrs & 6 days, RT
  Needle shaped crystals observed? (visual observation by light microscopy): No, <5 μm @
[3]; in FOMBLIN HC04 100%, 4, 7 & 13 days, RT
  Needle shaped crystals observed? (visual observation by light microscopy): No, <5 μm @
[3]; in Hydroxyethyl cellulose 1% in water, 7 days, RT
  Needle shaped crystals observed? (visual observation by light microscopy): Yes, >5 μm, @
[3]; in Hydroxypropyl methylcellulose 1% in water, 3 days, RT
  Needle shaped crystals observed? (visual observation by light microscopy): Yes, >5 μm @
[3]; in Lecithin 1% in water, 24 hrs, RT
  Needle shaped crystals observed? (visual observation by light microscopy): Yes, >10 μm, @
[3]; in Light Mineral Oil NF 100%, 3 days, RT & 40 C.
  Needle shaped crystals observed? (visual observation by light microscopy): No, <5 μm @
[3]; in Magnesium nitrate 5% in water, 3 days, RT
  Needle shaped crystals observed? (visual observation by light microscopy): Yes, >5 μm @
[3]; in Mannitol 5% in water, 7 days, RT
  Needle shaped crystals observed? (visual observation by light microscopy): Yes, >5 μm, @
[3]; in Mineral Oil USP (heavy) 100%, 3 days, RT & 40 C.
  Needle shaped crystals observed? (visual observation by light microscopy): No, <5 μm @
[3]; in PEG 400 10% in water, 22 days, RT & 60 C.
  Needle shaped crystals observed? (visual observation by light microscopy): Yes, >5 μm @
[3]; in Poloxamer 188 2% in water, 7 days, RT
  Needle shaped crystals observed? (visual observation by light microscopy): Yes, >5 μm @
[3]; in Poloxamer 407 2% in water, 5 & 7 days, RT
  Needle shaped crystals observed? (visual observation by light microscopy): No, <5 μm @
[3]; in Polyoxyl 40 Hydrogenated Castor Oil (KOLLIPHOR RH40) 1% in water, 6 days, RT
  Needle shaped crystals observed? (visual observation by light microscopy): Yes, <5 μm @
[3]; in Polysorbate 80 0.5% in Saline, 7 days, RT & 60 C.
  Needle shaped crystals observed? (visual observation by light microscopy): Yes, >5 μm @
[3]; in Polysorbate 80 0.5% in water, 22 days, RT & 60 C.
  Needle shaped crystals observed? (visual observation by light microscopy): Yes, <5 μm @
[3]; in Povidone 1% in water, 7 days & 21 days, RT
  Needle shaped crystals observed? (visual observation by light microscopy): Yes, <5 μm @
[3]; in Proline 3% in water, 7 days, RT
  Needle shaped crystals observed? (visual observation by light microscopy): Yes, >5 μm, @
[3]; in Purified Water 100%, 5 days, RT & 60 C.
  Needle shaped crystals observed? (visual observation by light microscopy): Yes, >5 μm, @
[3]; in ST-Cyclomethicone 5 NF 100%, 24 hrs & 13 days, RT
  Needle shaped crystals observed? (visual observation by light microscopy): No, <5 μm @
[3]; in Saline 0.9% NaCl in water, 7 days, RT & 60 C.
  Needle shaped crystals observed? (visual observation by light microscopy): Yes, >10 μm, @
[3]; in Sodium lauryl sulfate 2% in water, 7 days, RT
  Needle shaped crystals observed? (visual observation by light microscopy): Yes, >5 μm, @
[3]; in Sodium phosphate monobasic 0.75% in water, 7 days, RT
  Needle shaped crystals observed? (visual observation by light microscopy): Yes, >5 μm, @
[3]; in Sorbitol 5% in water, 7 days, RT
  Needle shaped crystals observed? (visual observation by light microscopy): Yes, >5 μm, @
[3]; in Vitamin E TPGS 0.5% in water, 6 days, RT
  Needle shaped crystals observed? (visual observation by light microscopy): Yes, <5 μm @
[3]; in Zinc acetate […] in water, 7 days, RT
  Needle shaped crystals observed? (visual observation by light microscopy): Yes, >5 μm, @
[3]; in any of the hydrophobic carriers of Table 2
  crystal growth: did not grow
[3]; in aqueous solutions of benzalkonium chloride, CARBOPOL ULTREZ 10, or poloxamer 407
  crystal growth: did not grow
[4]; [8]
  Particle size, Mean (number-weighted differential distribution): 0.861 μm
  Particle size, Median (number-weighted differential distribution): 0.710 μm
  Particle size, Mode (number-weighted differential distribution): 0.572 μm
[4]; [9]
  Particle size, Mean (number-weighted differential distribution): 0.83 μm
[5]; [8]
  SSA: 41.24 m^2/g
[5]; [9]
  SSA: 26.72 m^2/g
[6]; [8]
  bulk density (not-tapped): 0.05 g/mL
[6]; [9]
  bulk density (not-tapped): 0.09 g/mL
Gottingen minipigs
  effect of the presence of the nanoparticles in the formulations on dermal irritation: negligible effect

## Cyclomethicone
[7]
  irritation to vaginal tissues: non-irritating
